# Test results published in patent EP0906100B1, “USE OF 5-HT 1A? RECEPTOR ANTAGONISTS FOR THE TREATMENT OF URINARY INCONTINENCE” (RECORDATI S.A., priority 1996, dated 1997).
# How the values were obtained:
# 5-HT1A receptor = target: T1, 5-HT1A receptor (Rattus norvegicus, UniProt P19327); experiment: [3H]8-OH-DPAT binding (5HT1A receptors), rat hippocampi; details: 1 nM [3H]8-OH-DPAT, read-out: Binding affinity for the 5-HT1A receptor, Ki
# T1 construct: Rat hippocampi were homogenized in 50 volumes of ice-cold 50 mM Tris-HCl pH 7.4; from tissue; host or cells: rat hippocampus membranes
# T1 sequence (P19327 1-422): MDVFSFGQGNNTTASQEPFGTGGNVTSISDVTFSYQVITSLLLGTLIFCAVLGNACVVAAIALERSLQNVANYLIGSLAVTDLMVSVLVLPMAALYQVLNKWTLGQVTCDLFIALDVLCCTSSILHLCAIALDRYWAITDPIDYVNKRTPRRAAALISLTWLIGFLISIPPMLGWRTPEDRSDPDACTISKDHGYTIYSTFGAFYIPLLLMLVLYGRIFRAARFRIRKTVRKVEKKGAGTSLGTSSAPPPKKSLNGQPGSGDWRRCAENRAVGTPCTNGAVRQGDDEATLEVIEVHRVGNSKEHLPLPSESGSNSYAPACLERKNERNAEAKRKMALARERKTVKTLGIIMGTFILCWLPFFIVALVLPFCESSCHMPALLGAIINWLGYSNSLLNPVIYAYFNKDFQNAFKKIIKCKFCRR
# Method: [^3H]8-OH-DPAT binding (5HT1A receptors):
# (§1) Rat hippocampi were homogenized in 50 volumes of ice-cold 50 mM Tris-HCl pH 7.4. The homogenates were centrifuged at 48,000 x g for 10 minutes, and the pellets were resuspended in the same volume of ice-cold buffer, incubated for 10 minutes at 37°C, centrifuged and resuspended two more times. The final pellets obtained were resuspended in 100 volumes of 50 mM Tris-HCl, pH 7.4, containing 0.1 % ascorbic acid and 10 µM pargyline. 1 ml samples were incubated for 30 min at 25°C with 1 nM [^3H]8-OH-DPAT, in absence or presence of different concentrations (10^-5 to 10^-10 M) of the test compound. Non-specific binding was determined in the presence of 10 µM 5-HT. The incubations were terminated by rapid filtration through Whatman GF/B filters using a Brandel cell harvester, after which the filters were washed with 3 x 3 ml of ice-cold buffer. The radioactivity retained on the filters was determined by liquid scintillation counting.
# [1] = test system: rhythmic bladder voiding contractions; experiment: Volume-induced rhythmic bladder voiding contractions in anaesthetized rats; assay type: in vivo; details: for AMPLITUDE mm Hg before treatment / FREQUENCY No. contr./15 min before treatment: baseline; for AMPLITUDE mm Hg before treatment / AMPLITUDE mm Hg after treatment: animals with frequency reduction <50%; for AMPLITUDE mm Hg before treatment / FREQUENCY No. contr./15 min before treatment / AMPLITUDE mm Hg after treatment / FREQUENCY No. contr./15 min after treatment: mean±S.E.; for BLADDER CONTRACTIONS Disappearance time: duration of bladder quiescence, mean (S.E. in next cell); for ED (10 min disappearance of contractions) / ED50: Rattus norvegicus, iv; for ED (10 min disappearance of contractions): extrapolated dose inducing 10 min of disappearance of the contractions, linear regression; for ED50: read-out: ED50 FREQUENCY (and 95% confidence limits), quantal criterion (change ≥30% relative to basal value)
# Method: Female Sprague Dawley rats weighing 225-275 g (Crl: CD° BR, Charles River Italia) were used. The animals were housed with free access to food and water and were maintained on a forced 12 h alternating light-dark cycle at 22-24°C for at least one week, except during the experiment. The activity on the rhythmic bladder voiding contractions was evaluated according to the method of Dray (J. Pharmcol. Methods, 13:157, 1985), with some modifications as in Guarneri (Phannacol. Res., 27:173, 1993). […] The catheter was tied in place with a ligature around the external urethral orifice and was connected with conventional pressure transducers (Statham P23 ID/P23 XL). […] The bladder was then filled via the recording catheter by incremental volumes of warm (37°C) saline until reflex bladder voiding contractions occurred (usually 0.8-1.5 ml). Two parameters were recorded from the cystometrogram: the frequency of voiding contractions, calculated by counting the number of peaks/15 min of observation, and the mean amplitude of these contractions (mean height of the peaks in mmHg) in the same time period. For intravenous (i. v. ) injection of bioactive compounds, a PE 50 polyethylene tubing filled with physiological saline was inserted into the jugular vein.
# Bioactivity was assessed in individual animals (using 6-10 rats per dose), by recording the number and height of the peaks for 15 min after drug injection and comparing them with those previously recorded for 15 min after the intravenous administration of vehicle alone. […] The statistical significance of changes in frequency and amplitude before and after treatment was assessed by Student's t test for paired data. Changes showing a probability P<0.01 were considered significant.
# An all-or-none criterion was also used to compare bioactivity in terms of ED50 values. Rats showing a treatment-related change of ≥30% relative to the basal value were considered to be positive. Quantal dose-response curves and ED50 values were evaluated by the method of Bliss (J. Pharm. Pharmacol., 11:192, 1938).
# The rapid distension of the urinary bladder in urethane-anaesthetized rats produced a series of rhythmic bladder voiding contractions whose characteristics have been described (Maggie et al., Brain Res., 380, 83, 1986; Maggi, et al., J. Pharmacol. Exp. Ther., 230, 500, 1984). The frequency of these contractions is related to the sensory afferent arm of reflex micturition and to the integrity of the micturition centre, while their amplitude is a property of the efferent arm of the reflex (Maggi et al., J. Pharmacol. Meth., 15, 157, 1986; Maggi et al., Brain Res.. 415, 1, 1987; Maggi et al., Naun. Schmied. Arch. Pharmacol., 332, 276, 1986; Maggi et al., J. Urol., 136, 696, 1986).
# α1-adrenergic receptor = experiment: [3H]prazosin binding (α1-receptors), rat cerebral cortices; details: 0.35 nM [3H]prazosin, read-out: Binding affinity for the α1-adrenergic receptor, Ki
# Method: [^3H]prazosin binding (α1-receptors):
# as §1, with “cerebral cortices” for “hippocampi”, “centrifuged,” for “incubated for 10 minutes at 37°C, centrifuged”, “pellets” for “pellets obtained”, “1 ml samples were incubated for 30 min at 25°C with 1 nM [^3H]8-OH-DPAT, in absence or presence of different concentrations (10^-5 to 10^-10 M) of the test compound.” left out, “phentolamine.” for “5-HT.”, “3x3” for “3 x 3”
# [2] = i.v., inhibition of frequency of rhythmic bladder voidings (ED50)
structure (smiles),measurement,setting,value
"O=C(C1CCCCC1)N(CCN1CCN(c2cccc3[nH]ccc23)CC1)c1ccccn1 [Compound B, N-{2-[4-(4-Indolyl)-1-piperazinyl]-ethyl}-N-(2-pyridyl)-cyclohexanecarboxamide]",Ki,5-HT1A receptor,0.13 nM
same,AMPLITUDE mm Hg before treatment,[1]; 0.3 µg/kg i.v. group,31.0±3.7 mm Hg
same,FREQUENCY No. contr./15 min before treatment,[1]; 0.3 µg/kg i.v. group,10.7±1.4 No. contr./15 min
same,AMPLITUDE mm Hg after treatment,[1]; 0.3 µg/kg i.v.,27.7±4.1 mm Hg
same,BLADDER CONTRACTIONS Disappearance time,[1]; 0.3 µg/kg i.v.,1.10 min
same,FREQUENCY No. contr./15 min after treatment,[1]; 0.3 µg/kg i.v.,11.3±1.7 No. contr./15 min
same,AMPLITUDE mm Hg before treatment,[1]; 1 µg/kg i.v. group,26.5±4.3 mm Hg
same,FREQUENCY No. contr./15 min before treatment,[1]; 1 µg/kg i.v. group,11.7±1.5 No. contr./15 min
same,AMPLITUDE mm Hg after treatment,[1]; 1 µg/kg i.v.,22.7±5.1 mm Hg
same,BLADDER CONTRACTIONS Disappearance time,[1]; 1 µg/kg i.v.,4.33 min
same,FREQUENCY No. contr./15 min after treatment,[1]; 1 µg/kg i.v.,8.7±1.3 No. contr./15 min
same,AMPLITUDE mm Hg before treatment,[1]; 3 µg/kg i.v. group,33.7±2.4 mm Hg
same,FREQUENCY No. contr./15 min before treatment,[1]; 3 µg/kg i.v. group,9.7±0.8 No. contr./15 min
same,AMPLITUDE mm Hg after treatment,[1]; 3 µg/kg i.v.,25.3±1.2 mm Hg
same,BLADDER CONTRACTIONS Disappearance time,[1]; 3 µg/kg i.v.,7.58 min
same,FREQUENCY No. contr./15 min after treatment,[1]; 3 µg/kg i.v.,4.7±1.1 No. contr./15 min
same,AMPLITUDE mm Hg before treatment,[1]; 10 µg/kg i.v. group,19.0 mm Hg
same,FREQUENCY No. contr./15 min before treatment,[1]; 10 µg/kg i.v. group,11.7±1.7 No. contr./15 min
same,AMPLITUDE mm Hg after treatment,[1]; 10 µg/kg i.v.,17.0 mm Hg
same,BLADDER CONTRACTIONS Disappearance time,[1]; 10 µg/kg i.v.,10.00 min
same,FREQUENCY No. contr./15 min after treatment,[1]; 10 µg/kg i.v.,4.2±0.9 No. contr./15 min
same,FREQUENCY No. contr./15 min before treatment,[1]; 30 µg/kg i.v. group,12.0±1.1 No. contr./15 min
same,BLADDER CONTRACTIONS Disappearance time,[1]; 30 µg/kg i.v.,8.85 min
same,FREQUENCY No. contr./15 min after treatment,[1]; 30 µg/kg i.v.,4.5±1.4 No. contr./15 min
same,ED (10 min disappearance of contractions),[1],9 µg/kg
same,ED50,[1]; i.v.,1 µg/kg
same,fold more active than NAN-190,[1]; [2],46 fold
same,fold more active than flavoxate,[1]; [2],2650 fold
same,Ki,α1-adrenergic receptor,458 nM
"COc1ccccc1N1CCN(CCCCN2C(=O)c3ccccc3C2=O)CC1 [NAN-190, 1-(2-methoxyphenyl)-4-[4-(2-phthalimido)-butyl]-piperazine]",Ki,5-HT1A receptor,1.9 nM
same,AMPLITUDE mm Hg before treatment,[1]; 30 µg/kg i.v. group,30.2±3.7 mm Hg
same,FREQUENCY No. contr./15 min before treatment,[1]; 30 µg/kg i.v. group,13.5±1.2 No. contr./15 min
same,AMPLITUDE mm Hg after treatment,[1]; 30 µg/kg i.v.,26.1±3.1 mm Hg
same,BLADDER CONTRACTIONS Disappearance time,[1]; 30 µg/kg i.v.,1.80 min
same,FREQUENCY No. contr./15 min after treatment,[1]; 30 µg/kg i.v.,11.8±1.5 No. contr./15 min
same,AMPLITUDE mm Hg before treatment,[1]; 100 µg/kg i.v. group,22.5±1.7 mm Hg
same,FREQUENCY No. contr./15 min before treatment,[1]; 100 µg/kg i.v. group,13.6±1.0 No. contr./15 min
same,AMPLITUDE mm Hg after treatment,[1]; 100 µg/kg i.v.,17.3±2.9 mm Hg
same,BLADDER CONTRACTIONS Disappearance time,[1]; 100 µg/kg i.v.,6.34 min
same,FREQUENCY No. contr./15 min after treatment,[1]; 100 µg/kg i.v.,6.4±1.1 No. contr./15 min
same,AMPLITUDE mm Hg before treatment,[1]; 300 µg/kg i.v. group,24.1±1.8 mm Hg
same,FREQUENCY No. contr./15 min before treatment,[1]; 300 µg/kg i.v. group,11.8±1.1 No. contr./15 min
same,AMPLITUDE mm Hg after treatment,[1]; 300 µg/kg i.v.,17.6±1.7 mm Hg
same,BLADDER CONTRACTIONS Disappearance time,[1]; 300 µg/kg i.v.,5.47 min
same,FREQUENCY No. contr./15 min after treatment,[1]; 300 µg/kg i.v.,6.6±1.1 No. contr./15 min
same,ED (10 min disappearance of contractions),[1],> 300 µg/kg
same,ED50,[1]; i.v.,46 µg/kg
same,Ki,α1-adrenergic receptor,4.8 nM
